Consider 16 compounds from patent US20160207930A1 (LEO PHARMA A/S, priority 2013, published 2016).

For one series, the target named is T1, NK1 Receptor (Homo sapiens, UniProt P25103).
T1 construct: Measurement of NK1 Receptor Mediated Intracellular [Ca^2+]; Mobilization in U251 MG Cells Using FLIPR; endogenous in cells; host or cells: U251 MG cells
As to the kind of experiment: NK1 receptor mediated intracellular [Ca2+] mobilization in U251 MG cells using FLIPR. The note with it: antagonism of Substance P (EC80), Fluo-4, read-out: NK1R mediated intracellular [Ca^2+] mobilization IC 50. The class given is cell-based. How it is done: Measurement of NK1 Receptor Mediated Intracellular [Ca^2+] Mobilization in U251 MG Cells Using FLIPR
U251 MG cells were seeded into black walled clear-bottom 384-well plates (Greiner Bio-One GmbH, Frickenhausen, Germany) at a density of 15,000 cells/well in 50 μl culture medium and cultured overnight in a 37° C. 5% CO2 incubator. The cells were then loaded with the calcium sensitive dye Fluo-4 (Invitrogen) at 1 μM in buffer, containing 0.04% Pluronic F-127 (Sigma-Aldrich), and 2.5 mM probenecid (Sigma-Aldrich) for 60 min in a humidified atmosphere of 5% CO2. Thereafter, cells were washed three times in washing buffer containing 20 mM HEPES and 2.5 mM probenecid pH 7.3. Serial dilutions of test compounds in assay buffer containing 2% dimethyl sulfoxide (final concentration in the cell plate is 0.5% DMSO) and/or agonist were then automatically pipetted into each test well, and the peak fluorescence intensity was recorded (lex, 488 nm; lem, 540 nm) by the FLIPR instrument (Molecular Devices) for approximately 5 min. To measure antagonist potency, cell plates were first incubated with the test compound and intracellular fluorescence recorded for 5 minutes to check a potential agonist effect of the test compound. Cell plates were quickly removed from the FLIPR instrument and incubated for additional 10 minutes at 37° C. before being moved back to the FLIPR instrument for Substance P (EC80) addition. The response was measured as the peak relative fluorescence change after agonist addition.
Compound relative %-effect was normalized to the maximal response evoked by 100 nM Aprepitant in presence of the EC80 of Substance P and the antagonist potency determined by non-linear regression using GraphPad Prism (version 5) or the four-parameter logistic model in XLfit (IDBS, Guilford, UK) for Microsoft Excel (Microsoft, Redmond, Wash.). The IC50 value is defined as the molar concentration of a test compound that produces a response midway between the fitted top and the fitted bottom. pIC50=−log IC50
Formula is listed as follows:
Fit (% Effect calculated)=(A+((B−A)/(1+((C/X)̂D)))) • A: bottom value • B: top value • C: test compound concentration • X: Relative IC50 • D: Hill slope coefficient
Ref: Sullivan E, Tucker E M, and Dale I L. Measurement of [Ca^2+] using the Fluorometric Imaging Plate Reader (FLIPR). Methods Mol Biol 114:125-133, 1999.
Compounds of the present invention were tested according to example 100.

Series [1] is described as follows: Hepatic intrinsic clearance following incubation in human liver microsomes. The note with it: 0.5 μM test compound, NADPH, 0-30 min, scaled to g liver. The class given is in vitro ADME. How it is done: Hepatic Extraction Ratio from Hepatic Intrinsic Clearance Following Incubation in Human Liver Microsomes
The general procedure consists of an automated incubation system and LC-MS/MS analysis with human liver microsomes. Human liver microsomes are thawed rapidly in a waterbath at 37° C. and kept on ice until use. The human liver microsomes are diluted with 50 mM potassium phosphate buffer pH 7.4 to a protein concentration of 0.55 mg/mL. Test compounds and positive controls (Verapamil and Dextromethorphan, positive controls for CYP3A4 for CYP2D6 isoforms, respectively) are dissolved in methanol (or other appropriate solvent, if necessary) in order to obtain a 5 mM solution which is further diluted to the concentration of 50 μM. The stock solutions are prepared immediately before the test.
5 μL of 50 μM test compounds and controls are added to 445 μL-of the 0.55 mg/mL microsomes solution and the incubation mixture are pre-warmed at 37° C. for 5 minutes. The incubation reactions are initiated by adding 50 μL of pre-warmed NADPH regenerating system to the incubation mixtures. 50 μL-aliquots will be taken from the incubation mixtures at: 0, 3, 6, 9, 15 and 30 minutes and the reactions are stopped by adding 100 μL of ACN containing Rolipram, used as generic Internal Standard (IS). Samples are then diluted with 120 μL of Milli-Q water and centrifuged at 3000 rpm for 10 minutes, prior the LC-MS/MS analysis.
The integrated peak areas for test compounds at the selected time points are divided by the respective peak areas of the IS and the percent of parent remaining is calculated by normalizing the peak area ratio of parent to IS at 0 min. Observed rate constant (kobs) for parent degradation is calculated by determining the slope of the line of the graph of the natural log of percentage parent remaining versus time of incubation. From the rate of depletion (min−1) and volume of the incubation (mL), clearance is estimated. This is scaled for the protein in the incubation relative to that in the intact liver, for all species (mL/min/g liver).
Values for the Human in vitro Clint are expressed as mL/min/g liver.
Assuming a liver weight of 25.7 g/kg and a liver blood flow of 20.7 mL/min/kg, the hepatic extraction ratio, Eh, can be derived from the Human in vitro Clint:
E.g. a Human in vitro Clint of 2.4 mL/min/g liver corresponds to a hepatic extraction ratio of 75%.
Some compounds of the present invention were tested according to example 101.
In general terms: Microsomes from liver hold many membrane-bound enzymes, among them those of drug oxidation.

Where only a bound is given, the exact number is not on record here.

T1 sequence (P25103 whole entry): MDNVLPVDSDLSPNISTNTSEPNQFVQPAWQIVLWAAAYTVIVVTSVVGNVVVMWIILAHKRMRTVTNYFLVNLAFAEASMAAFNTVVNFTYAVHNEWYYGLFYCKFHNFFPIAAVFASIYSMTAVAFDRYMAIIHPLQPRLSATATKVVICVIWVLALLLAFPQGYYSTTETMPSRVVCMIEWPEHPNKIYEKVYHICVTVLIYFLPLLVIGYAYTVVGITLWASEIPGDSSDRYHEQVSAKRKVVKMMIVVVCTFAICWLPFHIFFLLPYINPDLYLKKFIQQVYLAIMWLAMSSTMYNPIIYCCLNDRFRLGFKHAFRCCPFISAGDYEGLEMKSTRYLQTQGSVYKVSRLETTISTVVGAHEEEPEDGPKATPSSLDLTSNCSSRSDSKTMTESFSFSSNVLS

Consider `COc1ccc(C2C3CCC(=O)N3CCN2C(=O)N(C)[C@H](C)c2cc(C(F)(F)F)cc(C(F)(F)F)c2)c(C)c1` (single isomer, unassigned) [Compound 18], for which the IC50 at NK1 Receptor worked out at 1.15 nM. Besides, in series [1], the “Human in vitro Clint” value was more than 200 mL/min/g.

`COc1ccc(C2C3CCC(=O)N3CCN2C(=O)N(C)[C@H](C)c2cc(C(F)(F)F)cc(C(F)(F)F)c2)c(C)c1` (single isomer, unassigned) [Compound 19]: the IC50 at NK1 Receptor stood at 38.8 nM. Further, in series [1], the “Human in vitro Clint” value was more than 200 mL/min/g.

`CCc1ccccc1[C@H]1[C@@H]2CCC(=O)N2CCN1C(=O)N(C)[C@H](C)c1cc(C(F)(F)F)cc(C(F)(F)F)c1` (single isomer, unassigned) [Compound 69]: the IC50 on NK1 Receptor worked out at 11 nM. The “Human in vitro Clint” value in series [1] is more than 200 mL/min/g.

Regarding `CCc1cc([C@@H](C)N(C)C(=O)N2CCN3C(=O)CC[C@H]3[C@@H]2c2ccccc2CC)cc(C(F)(F)F)c1` (single isomer, unassigned) [Compound 70], the IC50 on NK1 Receptor stood at 0.94 nM. Also, the “Human in vitro Clint” value in series [1] was more than 200 mL/min/g.

With `CCc1cc([C@@H](C)N(C)C(=O)N2CCN3C(=O)CC[C@H]3[C@@H]2c2ccccc2CC)cc(C(F)(F)F)c1` (single isomer, unassigned) [Compound 71], the IC50 on NK1 Receptor was 49 nM. The “Human in vitro Clint” value in series [1] was more than 200 mL/min/g.

`CCc1cc([C@@H](C)N(C)C(=O)N2CCN3C(=O)C(CCO)(CCO)CC3C2c2ccc(OC)cc2C)cc(C(F)(F)F)c1` (some centres unmarked) [Compound 16]: the IC50 on NK1 Receptor came to 0.243 nM. Further, the “Human in vitro Clint” value in series [1] was more than 200 mL/min/g.

For the compound `COc1ccc([C@H]2[C@@H]3CC(CCO)(CCO)C(=O)N3CCN2C(=O)N(C)[C@H](C)c2cc(C)cc(C(F)(F)F)c2)c(C)c1` [Compound 17, (1S,8aS)-7,7-bis(2-hydroxyethyl)-1-(4-methoxy-2-methylphenyl)-N-methyl-N—((R)-1-(3-methyl-5-(trifluoromethyl)phenyl)ethyl)-6-oxohexahydropyrrolo[1,2-a]pyrazine-2(1H)-carboxamide], the IC50 at NK1 Receptor was 0.799 nM. Moreover, in series [1], the “Human in vitro Clint” value was more than 200 mL/min/g.

On to `Cc1cc(F)ccc1[C@H]1[C@@H]2CCC(=O)N2CCN1C(=O)N(C)[C@H](C)c1cc(C(F)(F)F)cc(C(F)(F)F)c1` [Compound 20, (1S,8aS)—N—((R)-1-(3,5-bis(trifluoromethyl)phenyl)ethyl)-1-(4-fluoro-2-methylphenyl)-N-methyl-6-oxohexahydropyrrolo[1,2-a]pyrazine-2(1H)-carboxamide], for which the IC50 at NK1 Receptor is 0.137 nM. In series [1], the “Human in vitro Clint” value stood at 40 mL/min/g.

On to `Cc1cc([C@@H](C)N(C)C(=O)N2CCN3C(=O)CC[C@H]3[C@@H]2c2ccc(F)cc2C)cc(C(F)(F)F)c1` [Compound 21, (1S,8aS)-1-(4-fluoro-2-methylphenyl)-N-methyl-N—((R)-1-(3-methyl-5-(trifluoromethyl)phenyl)ethyl)-6-oxohexahydropyrrolo[1,2-a]pyrazine-2(1H)-carboxamide], for which the IC50 on NK1 Receptor was 0.083 nM. Further, the “Human in vitro Clint” value in series [1] came to 36 mL/min/g.

With `Cc1cc(F)ccc1[C@H]1[C@@H]2CCC(=O)N2CCN1C(=O)N(C)[C@H](C)c1cc(C(C)C)cc(C(F)(F)F)c1` [Compound 22, (1S,8aS)-1-(4-fluoro-2-methylphenyl)-N-(1-(3-isopropyl-5-(trifluoromethyl)phenyl)ethyl)-N-methyl-6-oxohexahydropyrrolo[1,2-a]pyrazine-2(1H)-carboxamide], the IC50 on NK1 Receptor came to 0.197 nM. In addition, the “Human in vitro Clint” value in series [1] was more than 200 mL/min/g.

`CCc1cc([C@@H](C)N(C)C(=O)N2CCN3C(=O)CC[C@H]3[C@@H]2c2ccc(F)cc2C)cc(C(F)(F)F)c1` [Compound 23, (1S,8aS)—N—((R)-1-(3-ethyl-5-(trifluoromethyl)phenyl)ethyl)-1-(4-fluoro-2-methylphenyl)-N-methyl-6-oxohexahydropyrrolo[1,2-a]pyrazine-2(1H)-carboxamide]: at NK1 Receptor, the IC50 is 0.037 nM. Besides, in series [1], the “Human in vitro Clint” value stood at 78 mL/min/g.

Consider `CCc1cc([C@@H](C)N(C)C(=O)N2CCN3C(=O)C(CCO)(CCO)C[C@H]3[C@@H]2c2ccc(F)cc2C)cc(C(F)(F)F)c1` [Compound 24, (1S,8aS)—N—((R)-1-(3-ethyl-5-(trifluoromethyl)phenyl)ethyl)-1-(4-fluoro-2-methylphenyl)-7,7-bis(2-hydroxyethyl)-N-methyl-6-oxohexahydropyrrolo[1,2-a]pyrazine-2(1H)-carboxamide], for which the IC50 on NK1 Receptor was 0.08 nM. Also, the “Human in vitro Clint” value in series [1] was more than 200 mL/min/g.

Consider `Cc1cc(F)ccc1[C@H]1[C@@H]2CC(CCO)(CCO)C(=O)N2CCN1C(=O)N(C)[C@H](C)c1cc(C(C)C)cc(C(F)(F)F)c1` [Compound 25, (1S,8aS)-1-(4-fluoro-2-methylphenyl)-7,7-bis(2-hydroxyethyl)-N—((R)-1-(3-isopropyl-5-(trifluoromethyl)phenyl)ethyl)-N-methyl-6-oxohexahydropyrrolo[1,2-a]pyrazine-2(1H)-carboxamide], for which the IC50 on NK1 Receptor turned out to be 0.08 nM. Moreover, in series [1], the “Human in vitro Clint” value worked out at 128 mL/min/g.

With `Cc1cc(OCc2ccccc2)ccc1[C@H]1[C@@H]2CCC(=O)N2CCN1C(=O)N(C)[C@H](C)c1cc(C(F)(F)F)cc(C(F)(F)F)c1` [Compound 26, (1S,8aS)-1-(4-(benzyloxy)-2-methylphenyl)-N—((R)-1-(3,5-bis(trifluoromethyl)phenyl)ethyl)-N-methyl-6-oxohexahydropyrrolo[1,2-a]pyrazine-2(1H)-carboxamide], the IC50 on NK1 Receptor is 7.36 nM. Moreover, in series [1], the “Human in vitro Clint” value is more than 200 mL/min/g.

Turning to `Cc1cc(O)ccc1[C@H]1[C@@H]2CCC(=O)N2CCN1C(=O)N(C)[C@H](C)c1cc(C(F)(F)F)cc(C(F)(F)F)c1` [Compound 27, (1S,8aS)—N—((R)-1-(3,5-bis(trifluoromethyl)phenyl)ethyl)-1-(4-hydroxy-2-methylphenyl)-N-methyl-6-oxohexahydropyrrolo[1,2-a]pyrazine-2(1H)-carboxamide], the IC50 at NK1 Receptor turned out to be 0.064 nM. Also, the “Human in vitro Clint” value in series [1] is more than 200 mL/min/g.

`CCc1cc([C@@H](C)N(C)C(=O)N2CCN3C(=O)CC[C@H]3[C@@H]2c2ccc(O)cc2C)cc(C(F)(F)F)c1` [Compound 28, (1S,8aS)—N—((R)-1-(3-ethyl-5-(trifluoromethyl)phenyl)ethyl)-1-(4-hydroxy-2-methylphenyl)-N-methyl-6-oxohexahydropyrrolo[1,2-a]pyrazine-2(1H)-carboxamide]: the IC50 at NK1 Receptor amounted to 0.11 nM. The “Human in vitro Clint” value in series [1] is more than 200 mL/min/g.
